Data published in paper PMC9636434, “Discovery of small molecule agonists of the Relaxin Family Peptide Receptor 2” (Communications Biology, 2022).
Where “and” joins values, the source holds several entries; their conditions need not be identical. Equal values may be shown once. Read-outs that look alike come from different tables or passages of the source.

Assays:
[1] = Pharmacokinetic study, 3 mg/kg IV, 10 mg/kg PO and 10 mg/kg PO QD*3, plasma, liver and bone; format: in vivo, mouse; settings: female, mouse
Experimental: The concentration of compound in plasma, liver, and long bones was detected using liquid chromatography tandem mass spectrometry (LC-MS/MS). Samples were collected after a single intraperitoneal (IP) administration at 30 mg/kg, a single intravenous (IV) administration at 3 mg/kg, a single oral (PO) administration at 10 mg/kg, and a daily PO administration for 3 consecutive days at 10 mg/kg. The compound was formulated in 75% PEG300 + 25% of 40% aq. HPBCD for IV and PO administration and in 60% Phosal + 40% PEG300 for IP administration. All tissue samples were homogenized in water at a tissue weight to water volume ratio 1:3.
IV administration, one 10 mg/kg PO administration and three 10 mg/kg PO administrations (QD*3). a Plasma, b liver and c bone profiles in female mice. The actual concentration (ng/g) is the detected value (ng/mL) multiplied by 4. Drug vehicle is 25% aq. 40% HP-b-CD - 75% PEG300. 3 mice were used per time point. Results are expressed as the mean ± SEM.

[2] = target: RXFP2 (Homo sapiens, UniProt Q8WXD0); test: INSL3 allosteric modulation experiment, HTRF cAMP, co-treatment 6641 and INSL3; format: cell-based; design: FLAG (N); expressed in transfected cells; settings: for % Eff: 6641 alone, replicates (1)-(3)
Sequence of RXFP2 (Q8WXD0 whole entry): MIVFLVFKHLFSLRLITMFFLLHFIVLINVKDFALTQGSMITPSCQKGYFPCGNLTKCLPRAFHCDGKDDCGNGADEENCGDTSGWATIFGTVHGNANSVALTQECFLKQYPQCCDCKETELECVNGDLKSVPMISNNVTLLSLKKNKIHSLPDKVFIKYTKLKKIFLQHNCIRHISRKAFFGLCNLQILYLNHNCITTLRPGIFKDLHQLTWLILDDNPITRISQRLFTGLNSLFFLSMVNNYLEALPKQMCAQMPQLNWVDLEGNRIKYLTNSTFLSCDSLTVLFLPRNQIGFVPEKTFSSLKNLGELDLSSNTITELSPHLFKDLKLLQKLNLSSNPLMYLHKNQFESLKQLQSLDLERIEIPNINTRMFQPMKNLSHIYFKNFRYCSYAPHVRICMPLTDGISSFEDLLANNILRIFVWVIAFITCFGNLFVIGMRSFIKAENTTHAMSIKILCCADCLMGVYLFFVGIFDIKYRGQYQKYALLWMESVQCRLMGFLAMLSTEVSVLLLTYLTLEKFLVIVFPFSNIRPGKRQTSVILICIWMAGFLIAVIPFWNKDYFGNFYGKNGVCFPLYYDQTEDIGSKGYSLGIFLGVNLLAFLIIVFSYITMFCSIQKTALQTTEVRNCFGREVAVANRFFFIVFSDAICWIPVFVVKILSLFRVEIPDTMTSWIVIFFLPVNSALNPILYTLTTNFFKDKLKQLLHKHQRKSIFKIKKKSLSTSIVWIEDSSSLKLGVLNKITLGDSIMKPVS
Excerpt: We have further analyzed the effect of simultaneous activation of human RXFP2 with 6641 and INSL3 to evaluate possible allosteric modulation of INSL3 cAMP signaling by the small molecule (Supplementary Fig. 8).
The HTRF Gs dynamic cAMP assay kit (CisBio, Bedford, MA) was used to measure intracellular cAMP accumulation in HEK293T cells (ATCC, Manassas, VA)[56]. […] The cell stock was verified mycoplasma free and authenticated by ATCC. Transient transfection was accomplished by treating cells in a 6-well plate with a mixture of 2 μg plasmid and 6 μL Lipofectamine 2000 (Invitrogen, Waltham, MA) per manufacturer’s protocol and incubating overnight. For cAMP measurement in 96-well format, HEK293T cells stably transfected with human RXFP2 (HEK-RXFP2), human RXFP1 (HEK-RXFP1), mouse Rxfp1 (HEK-Rxfp1) or transiently transfected with human RXFP1-RXFP2 chimeric receptors were seeded between 7500 and 30,000 cells per well, depending on cell line responsiveness, in serum-free DMEM medium and incubated overnight at 37 °C, 5% CO2. After 18 h, cells were treated with a titration of compound, 2 μM forskolin, or DMSO vehicle. Control wells were also treated with a titration of INSL3 (Phoenix Pharmaceuticals, Burlingame, CA) or human recombinant relaxin 2 (Peprotech, Cranbury, NJ). For the RXFP2 antagonist experiment, cells were co-treated with 0.28 μM compound or 30 nM INSL3 and a titration of the INSL3 B dimer antagonist[38],[39]. For the INSL3 allosteric modulation experiment, cells were co-treated with 0.025, 0.0025, or 0.00025 μM of compound and a titration of INSL3. Cells were incubated for 1 h at 37 °C, 5% CO2, and then kit cAMP-d2 and anti-cAMP antibody were added per manufacturer protocol. Plates were incubated for 1 h at room temperature and the signal was read on a CLARIOstar plate reader (BMG Labtech, Ortenberg, Germany) at 665 and 620 nm emission wavelengths.
cAMP response in HEK293T cells expressing human RXFP2 was measured by HTRF
assay after treatment with a titration of INSL3 and suboptimal concentrations of 6641.
Results are expressed as mean ± SEM of 3 independent experiments.
(1 picture or pasted object on this page, not shown here)

## O=C1Nc2ccc(-c3cc(C(F)(F)F)cc(C(F)(F)F)c3)cc2C(=O)N2CCN(C(=O)COc3ccc(OC(F)(F)F)cc3I)C[C@@H]12 [compound 6641]
[1]; C57BL/6 J, liver, iv, 3 mg/kg, liver, IV, 0.083 h, individual animals, read-out: Liver 6641 IV concentration
  concentration at 0.083 h: 26000 ng/g
[1]; C57BL/6 J, liver, iv, 3 mg/kg, liver, IV, 0.25 h, individual animals, read-out: Liver 6641 IV concentration
  concentration at 0.25 h: 17200 ng/g
[1]; C57BL/6J, liver, iv, 3 mg/kg, liver, IV, 0.5 h, individual animals, read-out: Liver 6641 IV concentration
  concentration at 0.5 h: 8740 ng/g
[1]; C57BL/6J, liver, iv, 3 mg/kg, liver, IV, 3 h, individual animals, read-out: Liver 6641 IV concentration
  concentration at 3 h: 1570 ng/g
[1]; C57BL/6 J, liver, iv, 3 mg/kg, liver, IV, 7 h, individual animals, read-out: Liver 6641 IV concentration
  concentration at 7 h: 474 ng/g
[1]; C57BL/6 J, liver, iv, 3 mg/kg, liver, IV, 24 h, individual animals, read-out: Liver 6641 IV concentration
  concentration at 24 h: 28 ng/g
[1]; C57BL/6 J, liver, po, 10 mg/kg, liver, PO (QD*3), 0.083 h, individual animals, read-out: Liver 6641 PO (QD*3) concentration
  concentration at 0.083 h: 44.1 ng/g
[1]; C57BL/6J, liver, po, 10 mg/kg, liver, PO (QD*3), 1 h, individual animals, read-out: Liver 6641 PO (QD*3) concentration
  concentration at 1 h: 3320 ng/g
[1]; C57BL/6J, liver, po, 10 mg/kg, liver, PO (QD*3), 3 h, individual animals, read-out: Liver 6641 PO (QD*3) concentration
  concentration at 3 h: 1900 ng/g
[1]; C57BL/6 J, liver, po, 10 mg/kg, liver, PO (QD*3), 7 h, individual animals, read-out: Liver 6641 PO (QD*3) concentration
  concentration at 7 h: 1010 ng/g
[1]; C57BL/6 J, liver, po, 10 mg/kg, liver, PO (QD*3), 24 h, individual animals, read-out: Liver 6641 PO (QD*3) concentration
  concentration at 24 h: 32.3 ng/g
[1]; C57BL/6 J, liver, po, 10 mg/kg, liver, PO, 0.083 h, individual animals, N/A: Below detection level, read-out: Liver 6641 PO concentration
  concentration at 0.083 h: 5.14 ng/g
[1]; C57BL/6 J, liver, po, 10 mg/kg, liver, PO, 0.25 h, individual animals, read-out: Liver 6641 PO concentration
  concentration at 0.25 h: 321 ng/g
[1]; C57BL/6J, liver, po, 10 mg/kg, liver, PO, 1 h, individual animals, read-out: Liver 6641 PO concentration
  concentration at 1 h: 3040 ng/g
[1]; C57BL/6J, liver, po, 10 mg/kg, liver, PO, 3 h, individual animals, read-out: Liver 6641 PO concentration
  concentration at 3 h: 1940 ng/g
[1]; C57BL/6 J, liver, po, 10 mg/kg, liver, PO, 7 h, individual animals, read-out: Liver 6641 PO concentration
  concentration at 7 h: 1210 ng/g
[1]; C57BL/6 J, liver, po, 10 mg/kg, liver, PO, 24 h, individual animals, read-out: Liver 6641 PO concentration
  concentration at 24 h: 28.5 ng/g
[1]; C57BL/6 J, liver, po, 10 mg/kg, liver, PO, 48 h, individual animals, read-out: Liver 6641 PO concentration
  concentration at 48 h: 2.88 ng/g
[1]; C57BL/6 J, plasma, iv, 3 mg/kg, IV, Time 0.083 h, individual values (1)-(3), read-out: Plasma concentration
  concentration at 0.083 h: 2030 ng/mL
[1]; C57BL/6 J, plasma, iv, 3 mg/kg, IV, Time 0.25 h, individual values (1)-(3), read-out: Plasma concentration
  concentration at 0.25 h: 1260 ng/mL
[1]; C57BL/6 J, plasma, iv, 3 mg/kg, IV, Time 0.5 h, individual values (1)-(3), read-out: Plasma concentration
  concentration at 0.5 h: 721 ng/mL
[1]; C57BL/6 J, plasma, iv, 3 mg/kg, IV, Time 1 h, individual values (1)-(3), read-out: Plasma concentration
  concentration at 1 h: 343 ng/mL
[1]; C57BL/6 J, plasma, iv, 3 mg/kg, IV, Time 3 h, individual values (1)-(3), read-out: Plasma concentration
  concentration at 3 h: 220 ng/mL
[1]; C57BL/6 J, plasma, iv, 3 mg/kg, IV, Time 7 h, individual values (1)-(3), read-out: Plasma concentration
  concentration at 7 h: 67.6 ng/mL
[1]; C57BL/6 J, plasma, iv, 3 mg/kg, IV, Time 24 h, individual values (1)-(3), read-out: Plasma concentration
  concentration at 24 h: 4.37 ng/mL
[1]; C57BL/6 J, plasma, iv, 3 mg/kg, IV, Time 48 h, individual values (1)-(3), N/A: Below detection level, read-out: Plasma concentration
  concentration at 48 h: 0.874 ng/mL
[1]; C57BL/6 J, plasma, po, 10 mg/kg, PO (QD*3), Time 0.083 h, individual values (1)-(3), read-out: Plasma concentration
  concentration at 0.083 h: 8.04 ng/mL
[1]; C57BL/6 J, plasma, po, 10 mg/kg, PO (QD*3), Time 0.25 h, individual values (1)-(3), read-out: Plasma concentration
  concentration at 0.25 h: 95.9 ng/mL
[1]; C57BL/6 J, plasma, po, 10 mg/kg, PO (QD*3), Time 1 h, individual values (1)-(3), read-out: Plasma concentration
  concentration at 1 h: 336 ng/mL
[1]; C57BL/6 J, plasma, po, 10 mg/kg, PO (QD*3), Time 3 h, individual values (1)-(3), read-out: Plasma concentration
  concentration at 3 h: 264 ng/mL
[1]; C57BL/6 J, plasma, po, 10 mg/kg, PO (QD*3), Time 7 h, individual values (1)-(3), read-out: Plasma concentration
  concentration at 7 h: 144 ng/mL
[1]; C57BL/6 J, plasma, po, 10 mg/kg, PO (QD*3), Time 24 h, individual values (1)-(3), read-out: Plasma concentration
  concentration at 24 h: 5.56 ng/mL
[1]; C57BL/6 J, plasma, po, 10 mg/kg, PO (QD*3), Time 48 h, individual values (1)-(3), N/A: Below detection level, read-out: Plasma concentration
  concentration at 48 h: 1.04 ng/mL
[1]; C57BL/6 J, plasma, po, 10 mg/kg, PO, Time 0.083 h, individual values (1)-(3), N/A: Below detection level, read-out: Plasma concentration
  concentration at 0.083 h: 1.64 ng/mL
[1]; C57BL/6 J, plasma, po, 10 mg/kg, PO, Time 0.25 h, individual values (1)-(3), read-out: Plasma concentration
  concentration at 0.25 h: 43.8 ng/mL
[1]; C57BL/6 J, plasma, po, 10 mg/kg, PO, Time 1 h, individual values (1)-(3), read-out: Plasma concentration
  concentration at 1 h: 369 ng/mL
[1]; C57BL/6 J, plasma, po, 10 mg/kg, PO, Time 3 h, individual values (1)-(3), read-out: Plasma concentration
  concentration at 3 h: 219 ng/mL
[1]; C57BL/6 J, plasma, po, 10 mg/kg, PO, Time 7 h, individual values (1)-(3), read-out: Plasma concentration
  concentration at 7 h: 134 ng/mL
[1]; C57BL/6 J, plasma, po, 10 mg/kg, PO, Time 24 h, individual values (1)-(3), read-out: Plasma concentration
  concentration at 24 h: 4.25 ng/mL
[1]; C57BL/6 J, plasma, po, 10 mg/kg, PO, Time 48 h, individual values (1)-(3), N/A: Below detection level, read-out: Plasma concentration
  concentration at 48 h: 1.39 ng/mL
[2]; 0.025, 0.0025 or 0.00025 μM compound and titration of INSL3
  effect of co-stimulation with INSL3 on cAMP production: simple additive effect
[2]; Log [M] -4.60
  % Eff: 75.1113% and 97.1676% and 94.1213%
[2]; Log [M] -5.60
  % Eff: 93.2943% and 114.987% and 113.554%
[2]; Log [M] -6.60
  % Eff: 74.6686% and 120.861% and 97.4942%
[2]; Log [M] -7.60
  % Eff: 50.914% and 51.0623% and 52.8348%
[2]; Log [M] -8.60
  % Eff: 8.681% and 8.081% and 10.3062%
[2]; Log [M] -9.60
  % Eff: 0.2079% and -1.122% and -1.231%
